Values joined by “and” are separate entries in the source; they are usually repeats but may differ in a detail not shown here. Equal entries are not always repeated. Where two headings read alike, the source gives them in different places.
Assays:
[1] = target: T1, tyrosine kinase A (TrkA) (Mus musculus, UniProt Q3UFB7); experiment: Tyrosine kinase A phosphorylation in HT-22 cells (Western blot); type: cell-based; settings: first minute of exposure
T1 construct: phosphorylation of tyrosine kinase A in cultured hippocampal neuronal cell line HT22; endogenous in cells; host or cells: HT-22 hippocampal neuronal cell line
Description: (§1) The amount of Hsp70, Hsp32 and pTrkA was determined in the cytoplasmic fraction of HT-22 neuronal cells. For heat shock proteins, a test compound was added to the culture 24 hours prior to testing, before the cells were washed off the culture liquid with PBS. For pTrkA, a test compound was added to the culture immediately prior to the cell lysis just for 1 or 2 min, before the cells were washed off the culture liquid with PBS. Then the cells were mixed with the lysis buffer (50 mM Tris-HCl, 5 mM EDTA, 1 mM DTT, 1% Triton X-100, pH 7.5) at 4° C. and lysed for 5 min, then scraped off, transferred into a 1.5 ml centrifuge tube and centrifuged at 13000 rpm and 4° C. for 10 min. The supernatant containing cytosolic proteins was assayed by electrophoresis and immunoblotting. Proteins were separated on a 10% polyacrylamide gel (PAAG) and transferred from PAAG onto a PVDF membrane by electroelution for 45 min. Western blots were pre-incubated for 1 h in a TBST solution containing 1% Tween-20 and supplemented with 5% (w/v) skim milk. Western blots were then incubated with the primary polyclonal anti-Hsp32 antibody diluted 1:1000 or primary monoclonal anti-Hsp70 antibody diluted 1:1000 or primary monoclonal anti-phosphorylated tyrosine kinase A antibody diluted 1:1000 for 1 hour. Then the blots were washed and incubated with a secondary antibody conjugated to horseradish peroxidase (diluted 1:2000) for 1 hour. The detection of Hsp70, Hsp32 and pTrkA was carried out by the ECL reaction on a Kodak film.

[2] = tested on: HT-22 neuronal cell line; experiment: Viability of HT-22 neuronal cell line without damaging factors (MTT test); type: cell-based, mouse; settings: added at plating and every 24 h for 10 days, control 0.283 ± 0.039
Description: The rat adrenal […] pheochromocytoma cell line PC12 was obtained from the Cell Culture Museum, RAN Institute of Molecular Genetics. The immortalized mouse hippocampal cell line HT-22 was a gift from Prof. F. Viegant, Utrecht University, the Netherlands.
The cells were grown in DMEM medium containing 5% FBS and 2 mM L-glutamine. The cells were incubated at 37° C. and 5% CO2. The growth medium was changed at 24 hours after inoculation and every 3 days thereafter. The cells were re-plated every week into culture flasks with a total area of 75 cm^2.
All types of cells were plated in DMEM medium.

[3] = tested on: rats; settings: 1.0 mg/kg i.p. 24 h prior to apomorphine (pretreatment); FIG. 2.10
Description: The control group was treated with distilled water according to the same regimen.

[4] = tested on: Hsp32; experiment: Western blot of Hsp32 in HT-22 cells; type: cell-based, mouse; settings: 24 h after addition; GK-1, GK-2 10^−8 and 10^−5 M; GK-3 10^−6 M; GK-4 10^−7 M; GK-5 10^−6 M
Description: as §1

[5] = tested on: HT-22 cells; experiment: Oxidative stress (H2O2) model in cultured HT-22 cells (MTT test); type: cell-based, mouse
Description: To induce an oxidative stress, the cells were placed in a growth medium containing 5% FBS, then a freshly prepared H2O2 solution was added to a final concentration of 1.5 mM and incubated for 30 min at 37° C. and 5% CO2. Thereafter, the medium was replaced with a new one and the cells were cultured for 4 h under the same conditions.
The determination of cell viability was carried out by MTT test. […] At the end of an experiment the growth medium was replaced with an MTT solution (0.5 mg/ml) and incubated for 30 min at 37° C. and 5% CO2. The MTT solution was then removed from the wells and DMSO was added to dissolve the formazan precipitate. Then the optical density was measured using a Multiscan (Thermo) spectrophotometer at a wavelength of 600 nm.

[6] = tested on: rats with hemorrhagic stroke; settings: 1 mg/kg
Description: The experiments were carried out on male white outbred rats weighing 220-250 g. […] The local cerebral hemorrhage (post-traumatic intracerebral hemorrhage) as a hemorrhagic stroke (HS) model was produced by the method of Makarenko (Makarenko A. N. et al., Zh. V. N. D. 2002, 52(6), 765-768).
To produce the stroke, rats were anesthetized with chloral hydrate (400 mg/kg i.m.) followed by craniotomy. The cerebral tissue in the region of internal capsule was destroyed followed (in 2-3 min) by the injection of blood (0.02-0.03 ml) taken from under the animal's tongue.
The neurological deficits, changes in the coordination of movements, muscle tone, orientation and exploratory behavior of the rats were recorded at 24 h after surgery.
The rats were monitored for 14 days after surgery. Animal's physical condition and behavioral features were recorded at 1, 3, 7 and 14 days.
The animals were distributed into 3 groups. Group 1 comprised sham-operated (SO) rats with craniotomy alone, group 2 comprised animals with HS, and group 3 comprised rats with HS treated with GK-2 (1 mg/kg at 3 h after surgery and every 48 hours thereafter for a total of 6 administrations). Group 1 and group 2 animals were treated with physiological saline in an equivalent volume.
Changes in animals' physical condition and behavior were evaluated by conventional methods. The neurological status was assessed by scoring neurological deficits according to MacGrow's stroke scoring system as modified by I. V. Gannushkina; by the muscle tone and coordination of movements monitoring methods; cognitive function was assessed by the passive avoidance conditioned reflex (PAR); and orientation and exploratory behavior by using the open field test. Also the drug's effect on the survival of rats was monitored.

T1 sequence (Q3UFB7 34-799): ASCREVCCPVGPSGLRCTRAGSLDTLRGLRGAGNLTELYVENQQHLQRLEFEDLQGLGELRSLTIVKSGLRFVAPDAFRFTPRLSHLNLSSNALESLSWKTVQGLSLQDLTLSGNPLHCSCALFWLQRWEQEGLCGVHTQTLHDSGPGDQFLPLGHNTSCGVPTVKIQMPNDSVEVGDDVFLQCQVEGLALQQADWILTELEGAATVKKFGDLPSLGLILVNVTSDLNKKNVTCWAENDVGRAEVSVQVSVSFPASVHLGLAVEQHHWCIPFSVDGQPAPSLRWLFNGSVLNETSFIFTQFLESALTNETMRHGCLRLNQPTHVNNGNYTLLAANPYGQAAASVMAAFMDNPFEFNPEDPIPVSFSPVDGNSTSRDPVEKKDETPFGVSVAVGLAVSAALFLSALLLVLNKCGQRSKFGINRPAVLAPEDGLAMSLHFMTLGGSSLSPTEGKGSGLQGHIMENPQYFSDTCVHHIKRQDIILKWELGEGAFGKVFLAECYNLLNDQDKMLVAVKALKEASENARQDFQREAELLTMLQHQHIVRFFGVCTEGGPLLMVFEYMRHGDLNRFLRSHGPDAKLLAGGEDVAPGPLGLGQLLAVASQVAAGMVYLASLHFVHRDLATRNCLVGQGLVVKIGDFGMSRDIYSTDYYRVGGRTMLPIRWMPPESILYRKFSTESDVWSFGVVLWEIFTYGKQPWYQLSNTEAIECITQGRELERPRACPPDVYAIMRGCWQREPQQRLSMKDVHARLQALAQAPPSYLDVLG

NCCCC[C@H](NC(=O)[C@H](CCC(=O)O)NC(=O)CCC(=O)O)C(=O)NCCCCCCNC(=O)[C@H](CCCCN)NC(=O)[C@H](CCC(=O)O)NC(=O)CCC(=O)O [GK-2, bis-(N-monosuccinyl-glutamyl-lysine) hexamethylenediamide]
level of phosphorylated tyrosine kinase A [1]: increased | Optical density (MTT) ([2]; 10^−5M): 0.357 ± 0.051 | Optical density (MTT) ([2]; 10^−8M): 0.375 ± 0.063 | intensity of apomorphine-induced oral stereotypy [3]: enhanced the intensity | amount of Hsp32 [4]: increase | Optical density (MTT) [5]: 0.324 ± 0.070^ and 0.345 ± 0.065^ | effect when added immediately after the oxidative stress exposure ([5]; 10^−8 M to 10^−5 M): therapeutic effect | Optical density (MTT) ([5]; Table 1.4, 10^−5M, 24 h before H2O2, control 0.427 ± 0.071, H2O2 0.350 ± 0.052): 0.422 ± 0.063^ | Optical density (MTT) ([5]; Table 1.4, 10^−8M, 24 h before H2O2, control 0.427 ± 0.071, H2O2 0.350 ± 0.052): 0.501 ± 0.109^ | Optical density (MTT) ([5]; Table 1.4, 10^−9M, 24 h before H2O2, control 0.427 ± 0.071, H2O2 0.350 ± 0.052): 0.516 ± 0.068^ | neuronal survival under oxidative stress ([5]; added 24 hours prior to the stress exposure, 10^−8 M to 10^−5 M): improved the neuronal survival | Relative number of animals with paralysis of 1 to 4 limbs ([6]; Day 1, SO 0, HS 0): 0% | Relative number of animals with paresis of 1 to 4 limbs ([6]; Day 1, SO 0, HS 37.5): 20% | Relative number of animals with ring movements ([6]; Day 1, SO 0, HS 50): 20% | Relative number of animals with limb weakness ([6]; Day 1, SO 30, HS 75): 30% | Relative number of animals with floppiness & slowness of movements ([6]; Day 1, SO 40, HS 100): 40% | Number of rats failing to mount the horizontal bar, abs. ([6]; Day 1, sham 3/10, stroke 6/8): 4/10 | Number of rats missing the rotating rod (3 rpm) during 2 min, abs. ([6]; Day 1, sham 3/10, stroke 6/8): 4/10 | Vertical motor activity ([6]; Day 1, sham 5.0, stroke 1.25): 3.7 ± 0.9 | Exploration of openings ([6]; Day 1, sham 10.3, stroke 1.9): 3.6 ± 0.7 | Horizontal motor activity ([6]; Day 1, sham 14.1, stroke 4.4): 9.9 ± 2.1 | Number of rats failing to mount the horizontal bar, % ([6]; Day 1, sham 30, stroke 75): 40% | Number of rats missing the rotating rod (3 rpm) during 2 min, % ([6]; Day 1, sham 30, stroke 75): 40% | Cumulative index ([6]; Day 1, sham 30.3, stroke 7.5): 17.2 ± 3.5 | Relative number of animals with paralysis of 1 to 4 limbs ([6]; Day 3, SO 0, HS 0): 0% | Relative number of animals with paresis of 1 to 4 limbs ([6]; Day 3, SO 0, HS 25): 0% | Relative number of animals with ring movements ([6]; Day 3, SO 0, HS 37.5): 10% | Relative number of animals with limb weakness ([6]; Day 3, SO 30, HS 75): 30% | Relative number of animals with floppiness & slowness of movements ([6]; Day 3, SO 30, HS 100): 30% | Number of rats failing to mount the horizontal bar, abs. ([6]; Day 3, sham 2/10, stroke 3/8): 2/10 | Number of rats missing the rotating rod (3 rpm) during 2 min, abs. ([6]; Day 3, sham 2/10, stroke 5/8): 3/10 | Exploration of openings ([6]; Day 3, sham 4.0, stroke 3.1): 3.7 ± 0.9 | Vertical motor activity ([6]; Day 3, sham 4.6, stroke 1.1): 2.4 ± 0.6 | Horizontal motor activity ([6]; Day 3, sham 9.3, stroke 3.0): 5.6 ± 1.4 | Cumulative index ([6]; Day 3, sham 17.9, stroke 7.2): 11.7 ± 2.4 | Number of rats failing to mount the horizontal bar, % ([6]; Day 3, sham 20, stroke 37.5): 20% | Number of rats missing the rotating rod (3 rpm) during 2 min, % ([6]; Day 3, sham 20, stroke 62.5): 30% | Relative number of animals with paralysis of 1 to 4 limbs ([6]; Day 7, SO 0, HS 0): 0% | Relative number of animals with paresis of 1 to 4 limbs ([6]; Day 7, SO 0, HS 0): 0% | Relative number of animals with ring movements ([6]; Day 7, SO 0, HS 0): 0% | Relative number of animals with floppiness & slowness of movements ([6]; Day 7, SO 0, HS 43): 0% | Relative number of animals with limb weakness ([6]; Day 7, SO 0, HS 43): 0% | Number of rats failing to mount the horizontal bar, % ([6]; Day 7, sham 0, stroke 43): 10% | Number of rats missing the rotating rod (3 rpm) during 2 min, % ([6]; Day 7, sham 0, stroke 43): 20% | Number of rats failing to mount the horizontal bar, abs. ([6]; Day 7, sham 0/10, stroke 3/7): 1/10 | Number of rats missing the rotating rod (3 rpm) during 2 min, abs. ([6]; Day 7, sham 0/10, stroke 3/7): 2/10 | Exploration of openings ([6]; Day 7, sham 3.7, stroke 2.9): 4.3 ± 0.9 | Vertical motor activity ([6]; Day 7, sham 4.1, stroke 1.0): 4.4 ± 0.7 | Horizontal motor activity ([6]; Day 7, sham 8.6, stroke 3.7): 8.1 ± 1.6 | Cumulative index ([6]; Day 7, sham 16.4, stroke 7.6): 16.8 ± 2.7 | Relative number of animals with floppiness & slowness of movements ([6]; Day 14, SO 0, HS 0): 0% | Relative number of animals with limb weakness ([6]; Day 14, SO 0, HS 0): 0% | Relative number of animals with paralysis of 1 to 4 limbs ([6]; Day 14, SO 0, HS 0): 0% | Relative number of animals with paresis of 1 to 4 limbs ([6]; Day 14, SO 0, HS 0): 0% | Relative number of animals with ring movements ([6]; Day 14, SO 0, HS 0): 0% | Number of rats failing to mount the horizontal bar, % ([6]; Day 14, sham 0, stroke 17): 0% | Number of rats missing the rotating rod (3 rpm) during 2 min, % ([6]; Day 14, sham 0, stroke 17): 0% | Number of rats failing to mount the horizontal bar, abs. ([6]; Day 14, sham 0/10, stroke 1/6): 0/10 | Number of rats missing the rotating rod (3 rpm) during 2 min, abs. ([6]; Day 14, sham 0/10, stroke 1/6): 0/10 | Exploration of openings ([6]; Day 14, sham 5.0, stroke 2.8): 3.2 ± 0.9 | Vertical motor activity ([6]; Day 14, sham 5.1, stroke 1.0): 2.8 ± 0.9 | Horizontal motor activity ([6]; Day 14, sham 9.1, stroke 1.8): 7.5 ± 1.7 | Cumulative index ([6]; Day 14, sham 19.2, stroke 5.7): 13.5 ± 2.9

Source: US9683014B2, “Dipeptide mimetics of NGF and BDNF neurotrophins” (UCHREZHDENIE ROSSIISKOI AKADEMII MEDITSYNSKIKH NAUK …, priority 2009, dated 2017)
